Source: patent US9650382B2, “Heteroarylamide derivatives having antiandrogenic properties” (MEDEIA THERAPEUTICS LTD, priority 2012, dated 2017)
Positions count from the first letter of the chain named.

Columns and labels:
Assay type in all cases: cell-based
[1] = target: T1, WT AR (Homo sapiens, UniProt P10275); assay: Antagonism in WT AR, AR transactivation reporter gene assay (COS-1 cells, or INDIGO Human AR Reporter Assay System), competitive setting with reference agonist; conditions: for activity at 1 µM / activity at 10 µM: COS-1, read-out: Relative LUC activity (%) indicating residual androgen activity in relation to reference agonist (100%); for Relative LUC activity (%) indicating residual androgen activity in relation to reference agonist (100%): competitive setting with reference agonist (50 nM testosterone or 400 pM FIT)
T1 construct: expressed in transfected cells; host or cells: COS-1 cells (transient transfection); alternatively non-human mammalian cells of the INDIGO Biosciences Human AR Reporter Assay System
T1 sequence (P10275 1-920): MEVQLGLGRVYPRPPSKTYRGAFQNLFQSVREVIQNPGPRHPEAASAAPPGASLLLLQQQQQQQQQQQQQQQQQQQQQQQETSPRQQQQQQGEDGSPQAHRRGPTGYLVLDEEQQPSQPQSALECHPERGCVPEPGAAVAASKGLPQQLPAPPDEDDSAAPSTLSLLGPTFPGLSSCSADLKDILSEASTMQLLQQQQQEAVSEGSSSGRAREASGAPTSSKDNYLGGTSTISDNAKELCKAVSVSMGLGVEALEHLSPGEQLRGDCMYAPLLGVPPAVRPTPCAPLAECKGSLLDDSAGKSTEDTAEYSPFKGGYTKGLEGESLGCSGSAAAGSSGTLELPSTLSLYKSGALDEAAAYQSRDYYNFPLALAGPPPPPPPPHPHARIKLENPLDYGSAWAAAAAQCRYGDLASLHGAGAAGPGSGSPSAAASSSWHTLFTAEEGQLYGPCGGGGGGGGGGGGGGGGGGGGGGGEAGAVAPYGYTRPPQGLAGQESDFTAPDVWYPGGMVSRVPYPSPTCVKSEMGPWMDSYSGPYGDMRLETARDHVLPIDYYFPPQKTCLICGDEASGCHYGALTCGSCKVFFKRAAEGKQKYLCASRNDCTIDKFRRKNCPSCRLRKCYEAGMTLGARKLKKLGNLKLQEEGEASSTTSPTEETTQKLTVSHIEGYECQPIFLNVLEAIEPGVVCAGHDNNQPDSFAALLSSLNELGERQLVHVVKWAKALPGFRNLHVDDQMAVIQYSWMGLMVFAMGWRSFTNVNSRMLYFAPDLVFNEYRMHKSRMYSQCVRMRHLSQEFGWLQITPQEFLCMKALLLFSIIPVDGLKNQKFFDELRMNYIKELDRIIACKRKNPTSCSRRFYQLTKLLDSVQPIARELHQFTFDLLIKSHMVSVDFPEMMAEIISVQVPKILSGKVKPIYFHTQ
Description: After 18 h, reporter gene activities (LUC and beta-galactosidase) were determined according to standard methods. The data are expressed as relative LUC activity (luciferase light units divided by beta-galactosidase A420nm to control for transfection efficiency) of a given compound in relation to the activity of a reference test item (=100%).
Alternatively, commercial Human AR Reporter Assay System (INDIGO Biosciences) was used. In this assay, non-human mammalian cells are engineered to express human WT AR together with LUC reporter gene linked to AR-responsive promoter. 400 pM 6-alpha-FI testosterone, FIT, was used as a reference agonist in a competitive setting.
Antagonism in WT AR of compounds of the present invention was measured in AR transactivation assay in COS-1 cells in competitive setting using testosterone as a reference agonist as described above. Alternatively INDIGO Bioscience's Human AR Reporter Assay System was utilized. […] Relative LUC activity representing AR-dependent transcription obtained by exposure to reference agonist alone was set to 100%.

[2] = target: T2, T877A AR (Homo sapiens, UniProt P10275, T878A); assay: Agonism in T877A mutant AR, AR transactivation assay in COS-1 cells, test compounds alone; conditions: 10 microM; compound alone
T2 construct: expressed in transfected cells; host or cells: COS-1 cells
T2 sequence (P10275 1-920 T878A): T1 sequence (P10275 1-920) with T878A
Description: (§1) COS-1 cells (American Type Culture Collection, ATCC) were cultured in Dulbecco's Modified Eagle Medium (DMEM) supplemented with 10% fetal bovine serum (FBS), penicillin (6.25 U/ml) and streptomycin (6.25 μg/ml) and seeded onto 48-well plates (50 000 cells/well) one day before transfection. Transfection media containing 2.5% charcoal-stripped FBS in DMEM was changed on cells 4 h prior to transfection. Cells were transfected with 50 ng of luciferase (LUC) reporter gene plasmid (pPB-286/+32-LUC; PB, probasin promoter), 5 ng of AR expression plasmid (pSG5-hAR), and 5 ng of pCMVβ (an internal, beta-galactosidase control for transfection efficiency and cell growth) using TransIT-LT1 reagent (Mirus Bio Corporation) according to the manufacturer's instructions. […] After 18 h, reporter gene activities (LUC and beta-galactosidase) were determined according to standard methods. The data are expressed as relative LUC activity (luciferase light units divided by beta-galactosidase A420nm to control for transfection efficiency) of a given compound in relation to the activity of a reference test item (=100%).
Agonism in T877A AR of compounds of the present invention was measured in AR transactivation assay in COS-1 cells as described above except that AR expression vector harboring the T877A mutation was used. The transfected cells were exposed to test compounds alone. Testosterone was used as reference agonist, and its' relative LUC activity representing AR-dependent transcription was set to 100%.

[3] = target: T3, W741L AR (Homo sapiens, UniProt P10275, W742L); assay: Agonism in W741L mutant AR, AR transactivation assay in COS-1 cells, test compounds alone; conditions: 10 microM; compound alone
T3 construct: expressed in transfected cells; host or cells: COS-1 cells
T3 sequence (P10275 1-920 W742L): T1 sequence (P10275 1-920) with W742L
Description: as §1
Agonism in W741L AR of compounds of the present invention was measured in AR transactivation assay in COS-1 cells as described above except that AR expression vector harboring the W741L mutation was used instead of the WT AR. The transfected cells were exposed to test compounds alone.

Q: Which results are given for `CCS(=O)(=O)CC(O)(C(=O)Nc1ccc(C#N)c(C(F)(F)F)c1)c1ccc(Cl)nc1` (stereo not shown) [Example 1, 2-(6-chloropyridin-3-yl)-N-[4-cyano-3-(trifluoromethyl)phenyl]-3-(ethanesulfonyl)-2-hydroxypropanamide]?
A: activity at 1 µM [1]: 37%; activity at 10 µM [1]: 8%; Relative LUC activity (%) in T877A AR in relation to testosterone (100%) [2]: 13%; Relative LUC activity (%) in W741L AR in relation to BIC (100%) [3]: 6%

Q: Which “Relative LUC activity (%) indicating residual androgen activity in relation to reference agonist (100%)” value ([1]; 1 microM compound) does the source give for `CC(C)CCS(=O)(=O)CC(O)(C(=O)Nc1ccc(C#N)c(C(F)(F)F)c1)c1ccc(Cl)nc1` (stereo not shown) [Example 6, 2-(6-chloropyridin-3-yl)-N-[4-cyano-3-(trifluoromethyl)phenyl]-2-hydroxy-3-[(3-methylbutane)sulfonyl]propanamide] here?
A: 28%

Q: And the “Relative LUC activity (%) indicating residual androgen activity in relation to reference agonist (100%)” value ([1]; 10 microM compound)?
A: 7%

Q: And the “Relative LUC activity (%) in T877A AR in relation to testosterone (100%)” value (“Relative LUC activity (%) in T877A AR” for short) [2]?
A: 4%

Q: What about the “Relative LUC activity (%) in W741L AR in relation to BIC (100%)” value (“Relative LUC activity (%) in W741L AR” below) [3] of the same molecule?
A: 31%

Q: How did the “Relative LUC activity (%) indicating residual androgen activity in relation to reference agonist (100%)” value ([1]; 1 microM compound) turn out when `N#Cc1ccc(NC(=O)C(O)(CS(=O)(=O)Cc2ccc(Cl)cc2)c2ccc(Cl)nc2)cc1Cl` (stereo not shown) [Example 8, N-(3-chloro-4-cyanophenyl)-3-{[(4-chlorophenyl)methane]sulfonyl}-2-(6-chloropyridin-3-yl)-2-hydroxypropanamide] was run?
A: 32%

Q: And the “Relative LUC activity (%) indicating residual androgen activity in relation to reference agonist (100%)” value ([1]; 10 microM compound)?
A: 4%

Q: And the “Relative LUC activity (%) in T877A AR” value [2]?
A: 2%

Q: And the “Relative LUC activity (%) in W741L AR” value [3]?
A: 4%

Q: How did the “Relative LUC activity (%) indicating residual androgen activity in relation to reference agonist (100%)” value ([1]; 1 microM compound) turn out when `N#Cc1ccc(NC(=O)C(O)(CS(=O)(=O)c2ccc(Cl)cc2)c2ccc(Cl)nc2)cc1Cl` (stereo not shown) [Example 9, N-(3-chloro-4-cyanophenyl)-3-[(4-chlorobenzene)sulfonyl]-2-(6-chloropyridin-3-yl)-2-hydroxypropanamide] was run?
A: 25%

Q: And the “Relative LUC activity (%) indicating residual androgen activity in relation to reference agonist (100%)” value ([1]; 10 microM compound)?
A: 13%

Q: What about the “Relative LUC activity (%) in T877A AR” value [2] of the same molecule?
A: 3%

Q: What about the “Relative LUC activity (%) in W741L AR” value [3] of the same molecule?
A: 23%

Q: What does the source list for `CC(C)S(=O)(=O)CC(O)(C(=O)Nc1ccc(C#N)c(C(F)(F)F)c1)c1ccc(Cl)nc1` (stereo not shown) [Example 12, 2-(6-chloropyridin-3-yl)-N-[4-cyano-3-(trifluoromethyl)phenyl]-2-hydroxy-3-(propane-2-sulfonyl)propanamide]?
A: activity at 1 µM [1]: 30%; activity at 10 µM [1]: 5%; Relative LUC activity (%) in T877A AR in relation to testosterone (100%) [2]: 4%; Relative LUC activity (%) in W741L AR in relation to BIC (100%) [3]: 3%

Q: How did the activity at 1 µM [1] turn out when `N#Cc1ccc(NC(=O)C(O)(CS(=O)(=O)c2ccc(F)cc2)c2ccc(C(F)(F)F)nc2)cc1Cl` (stereo not shown) [Example 15, N-(3-chloro-4-cyanophenyl)-3-(4-fluorobenzenesulfonyl)-2-hydroxy-2-[6-(trifluoromethyl)pyridin-3-yl]propanamide] was run?
A: 25%

Q: What about the activity at 10 µM [1] of the same molecule?
A: 3%
